Patent publication US9120749B2, “Quinoline derivatives and MELK inhibitors containing the same” (ONCOTHERAPY SCIENCE, INC., priority 2010, dated 2015)
Structures can show the parent of a compound that is named as a salt. Where two headings read alike, the source gives them in different places.

Legend:
MELK = MELK (Homo sapiens, UniProt Q14680); assay: Kinase assay: MELK activity, phosphorylation of FITC-labeled histone H3 peptide measured by IMAP fluorescence polarization; assay type: biochemical; conditions: MELK kinase assay, IMAP fluorescence polarization, 50 micro-M ATP; read-out: IC50 (μM) (kinase assay)
Procedure, shortened: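 FP readout: FITC-histone H3 peptide phosphorylation, read 0.5 h (RT) after stopping with 3x volume of IMAP progressive binding solution. Final DMSO 1%.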

T47D cells = assay: Cell-based assay: anti-proliferative activity, Cell Counting Kit-8, 72 hours (T47D)
Procedure, shortened: (§1)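 Cellular growth is read by CCK-8 colorimetric kit 72 h after inhibitor addition to seeded cells, and IC50 values are derived from the resulting data; MELK protein levels in these lines are checked beforehand by immunoblotting whole crude lysate.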

A549 cells = assay: Cell-based assay: anti-proliferative activity, Cell Counting Kit-8, 72 hours (A549); conditions: 72 hours
Procedure, shortened: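 A549 cells were seeded in 96-well plates and exposed to candidate inhibitors for 72 hours. Cell growth was then measured with Cell Counting Kit-8, and IC50 values were calculated from the resulting growth data.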

HT-1197 cells = assay: Cell-based assay: anti-proliferative activity, Cell Counting Kit-8, 72 hours (HT-1197, negative control without MELK expression); conditions: HT1197 cells (negative control, no MELK expression), 72 hours
Procedure, shortened: as §1

22Rv1 cells = assay: Cell-based assay: anti-proliferative activity, Cell Counting Kit-8, 72 hours (22Rv1)
DU4475 cells = assay: Cell-based assay: anti-proliferative activity, Cell Counting Kit-8, 72 hours (DU4475)

Sequence of MELK (Q14680 whole entry, looked up): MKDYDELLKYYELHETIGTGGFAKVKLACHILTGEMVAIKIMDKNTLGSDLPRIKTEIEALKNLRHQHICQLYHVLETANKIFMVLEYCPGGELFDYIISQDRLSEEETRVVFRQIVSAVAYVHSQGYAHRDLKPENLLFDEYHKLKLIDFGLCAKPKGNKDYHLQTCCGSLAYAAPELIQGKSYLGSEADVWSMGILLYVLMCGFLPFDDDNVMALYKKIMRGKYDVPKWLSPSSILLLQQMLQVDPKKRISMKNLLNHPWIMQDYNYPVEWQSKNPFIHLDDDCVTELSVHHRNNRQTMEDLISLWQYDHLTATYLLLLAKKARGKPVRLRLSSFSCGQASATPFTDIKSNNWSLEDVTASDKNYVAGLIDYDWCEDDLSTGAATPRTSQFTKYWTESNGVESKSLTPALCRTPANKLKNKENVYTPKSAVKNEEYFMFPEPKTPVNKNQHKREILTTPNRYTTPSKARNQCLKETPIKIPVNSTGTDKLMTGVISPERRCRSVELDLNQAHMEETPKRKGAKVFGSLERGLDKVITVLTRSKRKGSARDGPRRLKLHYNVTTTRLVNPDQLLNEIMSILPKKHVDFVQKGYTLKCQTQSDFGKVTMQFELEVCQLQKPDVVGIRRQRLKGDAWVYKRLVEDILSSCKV

SMILES | IC50 (MELK) [µM] | IC50 (T47D cells; Homo sapiens, T47D, 72 h) [µM] | IC50 (A549 cells; Homo sapiens, A549, 72 h) [µM] | IC50 (HT-1197 cells; Homo sapiens, HT1197, 72 h) [µM] | IC50 (22Rv1 cells; Homo sapiens, 22Rv1, 72 h) [µM] | IC50 (DU4475 cells; Homo sapiens, DU-4475, 72 h) [µM] | IC50 (T47D cells; 72 hours) [µM] | IC50 (A549 cells) [µM] | IC50 (HT-1197 cells) [µM] | IC50 (22Rv1 cells) [µM] | IC50 (DU4475 cells) [µM]
CC(=O)c1cnc2ccc(-c3cc(F)c(O)c(Cl)c3)cc2c1Nc1cnn(C2CCN(C)C2)c1 (stereo not drawn) [Example 813, 1-(6-(3-chloro-5-fluoro-4-hydroxyphenyl)-4-((1-(1-methylpyrrolidin-3-yl)-1H-pyrazol-4-yl)amino)quinolin-3-yl)ethanone dihydrochloride] | 0.0021 | 0.07 | 0.25 | 0.75 | 0.11 | 0.054 | – | – | – | – | –
CC(=O)c1cnc2ccc(-c3cc(Cl)c(O)c(Cl)c3)cc2c1Nc1cnn(C2CCN(C)C2)c1 (stereo not drawn) [Example 814, 1-(6-(3,5-dichloro-4-hydroxyphenyl)-4-((1-(1-methylpyrrolidin-3-yl)-1H-pyrazol-4-yl)amino)quinolin-3-yl)ethanone dihydrochloride] | 0.0009 | 0.14 | 0.29 | 0.78 | 0.13 | 0.057 | – | – | – | – | –
CNC1CCCN(c2ccc(Nc3c(C(C)=O)cnc4ccc(-c5cc(F)c(O)c(Cl)c5)cc34)cn2)C1 (stereo not drawn) [Example 815, 1-(6-(3-chloro-5-fluoro-4-hydroxyphenyl)-4-((6-(3-(methylamino)piperidin-1-yl)pyridin-3-yl)amino)quinolin-3-yl)ethanone trihydrochloride] | 0.0018 | 0.016 | 0.041 | 0.052 | 0.034 | 0.041 | – | – | – | – | –
CCN(C)C[C@H]1CC[C@H](Nc2c(C(C)=O)cnc3ccc(-c4cc(Cl)c(O)c(OC)c4)cc23)CC1 [Example 816, 1-(6-(3-chloro-4-hydroxy-5-methoxyphenyl)-4-(1R,4R)-4-((ethyl(methyl)amino)methyl)cyclohexylamino)quinolin-3-yl)ethanone hydrochloride] | 0.0027 | 0.28 | 0.25 | 7.3 | 0.44 | 0.36 | – | – | – | – | –
CCN(C)C[C@H]1CC[C@H](Nc2c(C(C)=O)cnc3ccc(-c4cc(Cl)c(O)c(Cl)c4)cc23)CC1 [Example 817, 1-(6-(3,5-dichloro-4-hydroxyphenyl)-4-((1R,4R)-4-((ethyl(methyl)amino)methyl)cyclohexylamino)quinolin-3-yl)ethanone] | 0.0014 | 0.097 | 0.15 | 11 | 0.12 | 0.074 | – | – | – | – | –
CC(=O)c1cnc2ccc(-c3cc(F)c(O)c(Cl)c3)cc2c1N[C@H]1CC[C@H](CN2CCCC(N)C2)CC1 (stereo partly drawn) [Example 818] | 0.0043 | 0.022 | 0.14 | 2.7 | 0.064 | 0.071 | – | – | – | – | –
CN(C)CCN1CCC(Nc2c(C(=O)C3CC3)cnc3ccc(-c4cc(Cl)c(O)c(Cl)c4)cc23)CC1 [Example 819, cyclopropyl(6-(3,5-dichloro-4-hydroxyphenyl)-4-(1-(2-(dimethylamino)ethyl)piperidin-4-ylamino)quinolin-3-yl)methanone] | 0.0024 | 0.38 | 0.44 | 3.3 | 0.64 | 0.17 | – | – | – | – | –
CN(C)CCN1CCC(Nc2c(C(=O)C3CC3)cnc3ccc(-c4cc(Cl)c(O)c(Cl)c4)cc23)CC1 [Example 820, cyclopropyl(6-(3,5-dichloro-4-hydroxyphenyl)-4-(1-(2-(dimethylamino)ethyl)piperidin-4-ylamino)quinolin-3-yl)methanone] | 0.0018 | – | – | – | – | – | 0.32 | 0.46 | 2.9 | 0.82 | 0.15
CC(=O)c1cnc2ccc(-c3cc(F)c(O)c(Cl)c3)cc2c1NC1CCN(CCN(C)C)CC1 [Example 821, 1-(6-(3-chloro-5-fluoro-4-hydroxyphenyl)-4-(1-(2-(dimethylamino)ethyl)piperidin-4-ylamino)quinolin-3-yl)ethanone] | 0.0053 | 0.23 | 0.59 | 3.3 | 0.25 | 0.17 | – | – | – | – | –
CN(C)CCN1CCC(Nc2c(C(=O)C3CC3)cnc3ccc(-c4cc(F)c(O)c(Cl)c4)cc23)CC1 [Example 822, (6-(3-chloro-5-fluoro-4-hydroxyphenyl)-4-(1-(2-(dimethylamino)ethyl)piperidin-4-ylamino)quinolin-3-yl)(cyclopropyl)methanone] | 0.0031 | 0.29 | 0.48 | 2.5 | 0.43 | 0.16 | – | – | – | – | –
CC(=O)c1cnc2ccc(-c3cc(Cl)c(O)c(Cl)c3)cc2c1NC1CCN(CCN(C)C)CC1 [Example 823, 1-(6-(3,5-dichloro-4-hydroxyphenyl)-4-(1-(2-(dimethylamino)ethyl)piperidin-4-ylamino)quinolin-3-yl)ethanone] | 0.0027 | 0.21 | 0.45 | 2.6 | 0.32 | 0.16 | – | – | – | – | –
CCC(=O)c1cnc2ccc(-c3cc(Cl)c(O)c(Cl)c3)cc2c1Nc1ccc(N2CCCC(N)C2)nc1 (stereo not drawn) [Example 824, 1-(4-(6-(3-aminopiperidin-1-yl)pyridin-3-ylamino)-6-(3,5-dichloro-4-hydroxyphenyl)quinolin-3-yl)propan-1-one] | 0.0016 | 0.021 | 0.036 | 0.28 | 0.026 | 0.026 | – | – | – | – | –
CCC(=O)c1cnc2ccc(-c3cc(F)c(O)c(Cl)c3)cc2c1Nc1ccc(N2CCCC(N)C2)nc1 (stereo not drawn) [Example 825, 1-(4-(6-(3-aminopiperidin-1-yl)pyridin-3-ylamino)-6-(3-chloro-5-fluoro-4-hydroxyphenyl)quinolin-3-yl)propan-1-one] | 0.0018 | 0.01 | 0.017 | 0.069 | 0.016 | 0.018 | – | – | – | – | –
CC(=O)c1cnc2ccc(-c3cc(F)c(O)c(Cl)c3)cc2c1N[C@H]1CCC[C@@H](CN(C)C)C1 [Example 826, 1-(6-(3-chloro-5-fluoro-4-hydroxyphenyl)-4-((1S,3R)-3-((dimethylamino)methyl)cyclohexylamino)quinolin-3-yl)ethanone hydrochloride] | 0.0083 | 0.25 | 0.54 | 1.9 | 0.48 | 0.22 | – | – | – | – | –
CC(=O)c1cnc2ccc(-c3cc(Cl)c(O)c(Cl)c3)cc2c1N[C@H]1CCC[C@@H](CN(C)C)C1 [Example 827, 1-(6-(3,5-dichloro-4-hydroxyphenyl)-4-((1S,3R)-3-((dimethylamino)methyl)cyclohexylamino)quinolin-3-yl)ethanone hydrochloride] | 0.0033 | 0.49 | 0.51 | 5.9 | 0.43 | 0.2 | – | – | – | – | –
CN1CCN(CCc2cccc(Nc3c(C(=O)C4CC4)cnc4ccc(-c5cc(F)c(O)c(Cl)c5)cc34)c2)CC1 [Example 828, (6-(3-chloro-5-fluoro-4-hydroxyphenyl)-4-(3-(2-(4-methylpiperazin-1-yl)ethyl)phenylamino)quinolin-3-yl)(cyclopropyl)methanone] | 0.017 | 5.7 | 0.23 | 9.5 | 0.72 | 0.16 | – | – | – | – | –
CN1CCN(CCc2cccc(Nc3c(C(=O)C4CC4)cnc4ccc(-c5cc(Cl)c(O)c(Cl)c5)cc34)c2)CC1 [Example 829, cyclopropyl(6-(3,5-dichloro-4-hydroxyphenyl)-4-(3-(2-(4-methylpiperazin-1-yl)ethyl)phenylamino)quinolin-3-yl)methanone] | 0.0051 | 0.7 | 0.087 | 5.7 | 0.23 | 0.057 | – | – | – | – | –
CC(=O)c1cnc2ccc(-c3cc(F)c(O)c(Cl)c3)cc2c1Nc1cccc(CCN2CCN(C)CC2)c1 [Example 830, 1-(6-(3-chloro-5-fluoro-4-hydroxyphenyl)-4-(3-(2-(4-methylpiperazin-1-yl)ethyl)phenylamino)quinolin-3-yl)ethanone] | 0.019 | 1.5 | 0.73 | 15 | 1.3 | 0.26 | – | – | – | – | –
CC(=O)c1cnc2ccc(-c3cc(Cl)c(O)c(Cl)c3)cc2c1Nc1cccc(CCN2CCN(C)CC2)c1 [Example 831, 1-(6-(3,5-dichloro-4-hydroxyphenyl)-4-(3-(2-(4-methylpiperazin-1-yl)ethyl)phenylamino)quinolin-3-yl)ethanone] | 0.0054 | 1.1 | 0.32 | 11 | 0.83 | 0.12 | – | – | – | – | –
CC(=O)c1cnc2ccc(-c3cc(F)c(O)c(Cl)c3)cc2c1N[C@H]1CCC[C@@H](CN2CCN(C)CC2)C1 [Example 832, 1-(6-(3-chloro-5-fluoro-4-hydroxyphenyl)-4-((1S,3R)-3-((4-methylpiperazin-1-yl)methyl)cyclohexylamino)quinolin-3-yl)ethanone hydrochloride] | 0.009 | 0.17 | 0.26 | 0.79 | 0.44 | 0.24 | – | – | – | – | –
